# Test results taken from ChEMBL document CHEMBL1201862, “PubChem BioAssay data set” (2004).
#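 Five compound concentrations were applied to cells in 96-well plates for 48 hours; endpoints were derived by simple linear interpolation of the resulting dose-response curve. GI50: concentration for 50% inhibition of growth.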 Calls of active or inactive are those of the source. No stated cut-off is given here; in the data, active = GI50 up to about 1.1 µM and inactive = higher.
# Experiments:
# Assay in all cases: NCI-60 cell line screen, 48 h
# SN12C = system: SN12C
# SF-268 = system: SF-268
# OVCAR-4 = system: OVCAR-4
# HT-29 = system: HT-29
# SK-MEL-2 = system: SK-MEL-2
# K562 = system: K562
# SK-OV-3 = system: SK-OV-3
# NCI-H23 = system: NCI-H23
# SW-620 = system: SW-620
# RPMI-8226 = system: RPMI-8226
# A498 = system: A498
# SK-MEL-28 = system: SK-MEL-28
# M14 = system: M14
# HOP-18 = system: HOP-18
# SF-539 = system: SF-539
# U-251 = system: U-251
# HCT-116 = system: HCT-116
# UO-31 = system: UO-31
SMILES,GI50 (SN12C),GI50 (SF-268),GI50 (OVCAR-4),GI50 (HT-29),GI50 (SK-MEL-2),GI50 (K562),GI50 (SK-OV-3),GI50 (NCI-H23),GI50 (SW-620),GI50 (RPMI-8226),GI50 (A498),GI50 (SK-MEL-28),GI50 (M14),GI50 (HOP-18),GI50 (SF-539),GI50 (U-251),GI50 (HCT-116),GI50 (UO-31)
CCCNc1ncnc2c1cnn2C,> 100 µM (inactive),> 100 µM (inactive),> 100 µM (inactive),> 100 µM (inactive),> 100 µM (inactive),> 100 µM (inactive),> 100 µM (inactive),> 100 µM (inactive),> 100 µM (inactive),> 100 µM (inactive),> 100 µM (inactive),> 100 µM (inactive),> 100 µM (inactive),> 100 µM (inactive),> 100 µM (inactive),> 100 µM (inactive),> 100 µM (inactive),–
O=C1c2ccccc2C(=O)c2sc(Nc3cccc(Cl)c3)nc21,1.51 µM (inactive),2.01 µM (inactive),1.45 µM (inactive),3.34 µM (inactive),1.79 µM (inactive),1.57 µM (inactive),8.11 µM (inactive),1.49 µM (inactive),0.802 µM (active),0.966 µM (active),2.07 µM (inactive),1.81 µM (inactive),1.82 µM (inactive),1.63 µM (inactive),1.93 µM (inactive),1.31 µM (inactive),1.82 µM (inactive),2.3 µM (inactive)
Cn1cnnc1Sc1c([N+](=O)[O-])nc(-c2ccc([N+](=O)[O-])cc2)n1C,16.1 µM (inactive),16.9 µM (inactive),16.1 µM (inactive),18.4 µM (inactive),15.1 µM (inactive),18 µM (inactive),> 100 µM (inactive),18.2 µM (inactive),16.1 µM (inactive),16.1 µM (inactive),> 100 µM (inactive),16 µM (inactive),16.4 µM (inactive),17.4 µM (inactive),16.7 µM (inactive),16.6 µM (inactive),15.1 µM (inactive),14.7 µM (inactive)
CCOc1ccc(/N=C\c2ccc3cc(C)ccc3n2)cc1,> 100 µM (inactive),69 µM (inactive),75.3 µM (inactive),34.6 µM (inactive),45.1 µM (inactive),25.4 µM (inactive),> 100 µM (inactive),> 100 µM (inactive),58.9 µM (inactive),22.8 µM (inactive),72.3 µM (inactive),> 100 µM (inactive),49.1 µM (inactive),> 100 µM (inactive),40.3 µM (inactive),> 100 µM (inactive),–,31 µM (inactive)
O/N=C1/C(=C/c2ccc3c(c2)OCO3)CCCC1C(NO)c1ccc2c(c1)OCO2 (stereo not given),21.3 µM (inactive),28.2 µM (inactive),24.6 µM (inactive),16.7 µM (inactive),21.4 µM (inactive),24.9 µM (inactive),48.2 µM (inactive),30.4 µM (inactive),30.8 µM (inactive),18.8 µM (inactive),26.5 µM (inactive),21.7 µM (inactive),19.5 µM (inactive),18.2 µM (inactive),18 µM (inactive),20.8 µM (inactive),17.3 µM (inactive),23.4 µM (inactive)
CC1C[C@H](C)CC(C(O)CC2CC(=O)N(Cc3ccccc3)C(=O)C2)C1O (stereo not given in full),> 100 µM (inactive),> 100 µM (inactive),> 100 µM (inactive),> 100 µM (inactive),–,> 100 µM (inactive),> 100 µM (inactive),2.65 µM (inactive),> 100 µM (inactive),> 100 µM (inactive),> 100 µM (inactive),> 100 µM (inactive),> 100 µM (inactive),> 100 µM (inactive),> 100 µM (inactive),> 100 µM (inactive),> 100 µM (inactive),> 100 µM (inactive)
O=C(O)CN(c1ccccc1)S(=O)(=O)c1cccc([N+](=O)[O-])c1,> 100 µM (inactive),> 100 µM (inactive),> 100 µM (inactive),> 100 µM (inactive),> 100 µM (inactive),> 100 µM (inactive),> 100 µM (inactive),> 100 µM (inactive),> 100 µM (inactive),> 100 µM (inactive),> 100 µM (inactive),> 100 µM (inactive),> 100 µM (inactive),> 100 µM (inactive),> 100 µM (inactive),> 100 µM (inactive),–,> 100 µM (inactive)
C=C1CC[C@@H]2C(C)(C)CCC[C@@]2(C)[C@@H]1Cc1cc(O)ccc1O,4.27 µM (inactive),3.38 µM (inactive),1.8 µM (inactive),16.5 µM (inactive),2.04 µM (inactive),3.44 µM (inactive),2.3 µM (inactive),5.97 µM (inactive),8.43 µM (inactive),3.14 µM (inactive),13.7 µM (inactive),2.56 µM (inactive),11.8 µM (inactive),11.2 µM (inactive),1.93 µM (inactive),3.72 µM (inactive),4.62 µM (inactive),2.52 µM (inactive)
